Laboratory results as given in patent publication US12404318B2, “Combination HBV therapy” (priority 2018, dated 2025).

Tested on: HBV (rAAV8-1.3HBV strain ayw, D type)
Assay: Combination therapy study in AAV-HBV mice (Example 1): serum HBsAg and HBV DNA
Type: in vivo, C57BL/6 mice
Method: The mice (C57BL/6 strain) were inoculated with the following amount of rAAV8-1.3HBV strain ayw, D type: 1.0×10^11 viral genomes per mouse in 200 μl volume via tail veins injection. Four weeks after viral inoculation, treatment with test compounds was initiated.
Entecavir was administered orally once per day.

Question: C=C1[C@H](CO)[C@@H](O)C[C@@H]1n1cnc2c(=O)[nH]c(N)nc21 [ETV, entecavir, reference compound] was tested. Which “HBsAg levels from mouse serum (average log HBsAg content)” value (Treatment 13: ETV 0.001 mg/kg, day 0 post-dose) did it give?
Answer: 4.54 log IU/ml

Question: What about the “HBsAg levels from mouse serum (average log HBsAg content)” value (Treatment 13: ETV 0.001 mg/kg, day 3 post-dose) of the same compound?
Answer: 4.54 log IU/ml

Question: What about the “HBsAg levels from mouse serum (average log HBsAg content)” value (Treatment 13: ETV 0.001 mg/kg, day 7 post-dose) of the same compound?
Answer: 4.39 log IU/ml

Question: What about the “HBsAg levels from mouse serum (average log HBsAg content)” value (Treatment 13: ETV 0.001 mg/kg, day 10 post-dose) of the same compound?
Answer: 4.29 log IU/ml

Question: And the “HBsAg levels from mouse serum (average log HBsAg content)” value (Treatment 13: ETV 0.001 mg/kg, day 14 post-dose)?
Answer: 4.28 log IU/ml

Question: And the “HBsAg levels from mouse serum (average log HBsAg content)” value (Treatment 13: ETV 0.001 mg/kg, day 17 post-dose)?
Answer: 4.24 log IU/ml

Question: And the “HBsAg levels from mouse serum (average log HBsAg content)” value (Treatment 13: ETV 0.001 mg/kg, day 21 post-dose)?
Answer: 4.13 log IU/ml

Question: And the “HBsAg levels from mouse serum (average log HBsAg content)” value (Treatment 13: ETV 0.001 mg/kg, day 24 post-dose)?
Answer: 4.21 log IU/ml

Question: And the “HBsAg levels from mouse serum (average log HBsAg content)” value (Treatment 13: ETV 0.001 mg/kg, day 28 post-dose)?
Answer: 3.98 log IU/ml

Question: And the “HBsAg levels from mouse serum (average log HBsAg content)” value (Treatment 13: ETV 0.001 mg/kg, day 31 post-dose)?
Answer: 4.02 log IU/ml

Question: And the “HBsAg levels from mouse serum (average log HBsAg content)” value (Treatment 13: ETV 0.001 mg/kg, day 35 post-dose)?
Answer: 3.88 log IU/ml

Question: And the “HBsAg levels from mouse serum (average log HBsAg content)” value (Treatment 13: ETV 0.001 mg/kg, day 38 post-dose)?
Answer: 3.92 log IU/ml

Question: And the “HBsAg levels from mouse serum (average log HBsAg content)” value (Treatment 13: ETV 0.001 mg/kg, day 42 post-dose)?
Answer: 3.84 log IU/ml

Question: How did the “Reduction of serum HBV DNA (viral load) relative to the saline control” value (AAV/HBV-infected C57BL/6 mice, HBV02 3 mg/kg, HBC34 antibody (HBC34-v7-mu-IgG2a) 15 mg/kg, alone or combined, FIGS. 2A, 2B) turn out when “HBV02: chemically synthesized double-stranded oligonucleotide (siRNA) linked to a ligand with three GalNAc residues; sense SEQ ID NO:7, antisense SEQ ID NO:8 (sense GUGUGCACUUCGCUUCACA; antisense UGUGAAGCGAAGUGCACACUU; triantennary GalNAc ligand attached, chemically modified, pattern not given here)” was run?
Answer: ~0.5 log10

Question: What about the “Reduction of serum HBsAg relative to the saline control” value (AAV/HBV-infected C57BL/6 mice, HBV02 3 mg/kg, HBC34 antibody (HBC34-v7-mu-IgG2a) 15 mg/kg, alone or combined, FIGS. 3A, 3B) of the same compound?
Answer: 1 log10

Question: What about the “HBsAg levels from mouse serum (average log HBsAg content)” value (Treatment 1: HBV02 3 mg/kg, day 0 post-dose) of the same compound?
Answer: 4.55 log IU/ml

Question: And the “HBsAg levels from mouse serum (average log HBsAg content)” value (Treatment 1: HBV02 3 mg/kg, day 3 post-dose)?
Answer: 3.99 log IU/ml

Question: And the “HBsAg levels from mouse serum (average log HBsAg content)” value (Treatment 1: HBV02 3 mg/kg, day 7 post-dose)?
Answer: 3.67 log IU/ml

Question: And the “HBsAg levels from mouse serum (average log HBsAg content)” value (Treatment 1: HBV02 3 mg/kg, day 10 post-dose)?
Answer: 3.59 log IU/ml

Question: What about the “HBsAg levels from mouse serum (average log HBsAg content)” value (Treatment 1: HBV02 3 mg/kg, day 14 post-dose) of the same compound?
Answer: 3.71 log IU/ml

Question: And the “HBsAg levels from mouse serum (average log HBsAg content)” value (Treatment 1: HBV02 3 mg/kg, day 17 post-dose)?
Answer: 3.69 log IU/ml

Question: What about the “HBsAg levels from mouse serum (average log HBsAg content)” value (Treatment 1: HBV02 3 mg/kg, day 21 post-dose) of the same compound?
Answer: 3.60 log IU/ml

Question: And the “HBsAg levels from mouse serum (average log HBsAg content)” value (Treatment 1: HBV02 3 mg/kg, day 24 post-dose)?
Answer: 3.57 log IU/ml

Question: What about the “HBsAg levels from mouse serum (average log HBsAg content)” value (Treatment 1: HBV02 3 mg/kg, day 28 post-dose) of the same compound?
Answer: 3.57 log IU/ml

Question: What about the “HBsAg levels from mouse serum (average log HBsAg content)” value (Treatment 1: HBV02 3 mg/kg, day 31 post-dose) of the same compound?
Answer: 3.81 log IU/ml

Question: And the “HBsAg levels from mouse serum (average log HBsAg content)” value (Treatment 1: HBV02 3 mg/kg, day 35 post-dose)?
Answer: 3.72 log IU/ml

Question: What about the “HBsAg levels from mouse serum (average log HBsAg content)” value (Treatment 1: HBV02 3 mg/kg, day 38 post-dose) of the same compound?
Answer: 3.72 log IU/ml

Question: And the “HBsAg levels from mouse serum (average log HBsAg content)” value (Treatment 1: HBV02 3 mg/kg, day 42 post-dose)?
Answer: 3.55 log IU/ml
